Test results reported in US20230122967A1, “NOVEL COMPOUNDS AS INHIBITORS OF PCSK9” (SHENGKE PHARMACEUTICALS (JIANGSU) LTD., priority 2020, published 2023).

Assays:
Assay type in all cases: cell-based
HepG2 cells [1] = test: Cell viability assay (HepG2 Survival assay, CellTiter-Glo); conditions: 24 hr, cellular ATP levels
Method: (§1) HepG2 cells (ATCC, Cat.: HB-8065) were maintained in Growth medium-Eagle's Minimum Essential Medium (Corning, 10-010-CVR), 10% FBS (Gibco, 10099-141), Penicillin (100 units/mL), Streptomycin ([…]). HepG2 cells were incubated at 37° C., 5% CO2. HepG2 cells were plated in black clear bottom 96-well plates (Corning, 3063) at 40,000 cells/well in 100 μL of growth media. After an overnight incubation, the culture media were changed to serum-free OptiMEM media (Gibco, 31985-062), 90 μL/well. Vehicle, PF-06446846 hydrochloride, berberine, or test compound was added to the culture media, 10 μL/well. After 24 hr cellular ATP levels were measured using CellTiter-Glo® 2.0 Assay (Promega, G9242).

PCSK9 = PCSK9 ELISA on HepG2 culture medium; conditions: HepG2 cells, 24 hr
Method: as §1, with “flat” for “black clear”, “3599)” for “3063)”, “medium was harvested, and 10 μL of the medium” for “cellular ATP levels”, “used for the PCSK9 ELISA (R&D Systems, SPC900).” for “measured using CellTiter-Glo® 2.0 Assay (Promega, G9242).”

PCSK9 mRNA = test: RT-Q-PCR analysis of PCSK9 mRNA in HepG2 cells; conditions: Homo sapiens, 24 h, normalized to GAPDH, read-out: HepG2 Q-PCR PCSK9 mRNA level decrease (10 μM)
Method: HepG2 cells (ATCC, Cat.: HB-8065) were maintained in Growth medium-Eagle's Minimum Essential Medium (Corning, 10-010-CVR), 10% FBS (Gibco, 10099-141), Penicillin (100 units/mL), Streptomycin ([…]). HepG2 cells were incubated at 37° C., 5% CO2.
Cells were cultured in growth medium as described above and treated with the vehicle, Berberine or test compound for 24 h. The RNA was extracted using the Total RNA mini Kit (Tiangen, Beijing, China) according to the manufacturer's instructions. Reverse transcription was carried out using the High-Capacity cDNA reverse transcription kit (Thermo Fisher Scientific). Quantitative real-time PCR was performed using a reaction mixture containing cDNA, specific primers [PCSK9, 5′-[…]-3′ (forward) and 5′-[…]-3′ (reverse); GAPDH, 5′-[…]-3′ (forward) and 5′-[…]-3′ (reverse)] and Maxima SYBR Green/ROX qPCR Master Mix (Thermo Fisher Scientific). PCR amplification was carried out in a Real-Time PCR System. The real-time PCR conditions were 37° C. 10 min; 95° C. 10 min; 95° C. 15 s, 60° C. 30 s, 72° C. 30 s, 40 cycle. The amount of % RNA was normalized to the GAPDH level in the same samples.

HepG2 cells [2] = test: Measurement of Dil-LDL uptake in HepG2 cells; conditions: Homo sapiens, 24 h, 10 μM for 20 h, then 20 μg/mL Dil-LDL 4 h, read-out: LDL uptake 10 μM (fold of vehicle)
Method: HepG2 cells were maintained in MEM supplemented with 10% FBS. The cells were seeded in 96 well black plates at a density of 1×10^4 cells per well and grown to 70-80% confluence. Afterwards, cells were changed to serum-free Opti-MEM for 1 h and followed by incubation with 10 μM Berberine or compounds of the present disclosure for 20 h. Then, 20 μg/mL Dil-LDL was added and incubated at 37° C. in the dark for additional 4 h. Cells were extensively washed three times with PBS, and LDL uptake was determined on a fluorescence plate reader at an excitation wavelength of 520 nm and emission wavelength of 580 nm.

CC(C)c1ccc(Oc2ccc(NC(=O)CN(CC(=O)NCc3ccccc3)C(=O)c3cc4cccc(C#N)c4[nH]3)cc2)cc1 [Compound 201-253]
HepG2 Survival assay (10 μM) (HepG2 cells [1]): 110%
HepG2 PCSK9 ELISA (10 μM) % inhibition (PCSK9): 61%
inhibition at 10 µM (PCSK9 mRNA): 59%
fold induction at 10 µM (HepG2 cells [2]): 1.77

CN(C(=O)CN(CC(=O)Nc1ccc(Oc2ccc(F)cc2)cc1)C(=O)c1ccc(C(F)(F)F)o1)C1Cc2ccccc2C1 [Compound 201-104]
HepG2 Survival assay (10 μM) (HepG2 cells [1]): 100%
HepG2 PCSK9 ELISA (10 μM) % inhibition (PCSK9): 83%
inhibition at 10 µM (PCSK9 mRNA): 86%
fold induction at 10 µM (HepG2 cells [2]): 4.15

CC(C)c1ccc(Oc2ccc(NC(=O)CN(CC(=O)NCc3ccccc3)C(=O)c3ccc(C(F)(F)F)o3)cc2)cc1 [Compound 201-245]
HepG2 Survival assay (10 μM) (HepG2 cells [1]): 101%
HepG2 PCSK9 ELISA (10 μM) % inhibition (PCSK9): 76%
fold induction at 10 µM (HepG2 cells [2]): 1.11

CC(C)c1ccc(Oc2ccc(NC(=O)CN(CC(=O)Nc3ccccc3)C(=O)c3ccc(C(F)(F)F)[nH]3)cc2)cc1 [Compound 201-265]
HepG2 Survival assay (10 μM) (HepG2 cells [1]): 93%
HepG2 PCSK9 ELISA (10 μM) % inhibition (PCSK9): 71%
inhibition at 10 µM (PCSK9 mRNA): 76%
fold induction at 10 µM (HepG2 cells [2]): 1.57

N#Cc1cccc2cc(C(=O)N(CC(=O)Nc3ccccc3)CC(=O)Nc3ccc(Oc4ccc(C(F)(F)F)cc4)cc3)[nH]c12 [Compound 201-267]
HepG2 Survival assay (10 μM) (HepG2 cells [1]): 103%
HepG2 PCSK9 ELISA (10 μM) % inhibition (PCSK9): 56%
inhibition at 10 µM (PCSK9 mRNA): 79%
fold induction at 10 µM (HepG2 cells [2]): 1.34

CN(C(=O)CN(CC(=O)Nc1ccc(Oc2ccc(F)cc2)cc1)C(=O)c1cc2cccc(F)c2[nH]1)C1Cc2ccccc2C1 [Compound 201-29]
HepG2 Survival assay (10 μM) (HepG2 cells [1]): 100%
HepG2 PCSK9 ELISA (10 μM) % inhibition (PCSK9): 61%
inhibition at 10 µM (PCSK9 mRNA): 88.5%
fold induction at 10 µM (HepG2 cells [2]): 3.07

CN(Cc1ccccc1F)C(=O)CN(CC(=O)Nc1ccc(Oc2ccccc2)cc1)C(=O)c1ccc(C(F)(F)F)o1 [Compound 201-109]
HepG2 Survival assay (10 μM) (HepG2 cells [1]): 100%
HepG2 PCSK9 ELISA (10 μM) % inhibition (PCSK9): 92%
inhibition at 10 µM (PCSK9 mRNA): 90%
fold induction at 10 µM (HepG2 cells [2]): 4.69

CN(C(=O)CN(CC(=O)Nc1ccc(Oc2ccc(F)c(F)c2)cc1)C(=O)c1ccc(C(F)(F)F)o1)C1Cc2ccccc2C1 [Compound 201-116]
HepG2 Survival assay (10 μM) (HepG2 cells [1]): 100%
HepG2 PCSK9 ELISA (10 μM) % inhibition (PCSK9): 81%
inhibition at 10 µM (PCSK9 mRNA): 88%
fold induction at 10 µM (HepG2 cells [2]): 3.76

CN(C(=O)CN(CC(=O)Nc1ccc(Oc2ccccc2)cc1)C(=O)c1ccc(C(F)(F)F)o1)C1Cc2ccccc2C1 [Compound 201-110]
HepG2 Survival assay (10 μM) (HepG2 cells [1]): 100%
HepG2 PCSK9 ELISA (10 μM) % inhibition (PCSK9): 84%
inhibition at 10 µM (PCSK9 mRNA): 88%
fold induction at 10 µM (HepG2 cells [2]): 4.76

CC(C)c1ccc(Oc2ccc(NC(=O)CN(CC(=O)Nc3ccccc3)C(=O)c3cc4cccc(C#N)c4[nH]3)cc2)cc1 [Compound 201-269]
HepG2 Survival assay (10 μM) (HepG2 cells [1]): 106%
HepG2 PCSK9 ELISA (10 μM) % inhibition (PCSK9): 53%
inhibition at 10 µM (PCSK9 mRNA): 87%
fold induction at 10 µM (HepG2 cells [2]): 1.34

CN(Cc1ccccc1F)C(=O)CN(CC(=O)Nc1ccc(Oc2ccccc2)cc1)C(=O)c1cc2cccc(F)c2[nH]1 [Compound 201-74]
HepG2 Survival assay (10 μM) (HepG2 cells [1]): 96%
HepG2 PCSK9 ELISA (10 μM) % inhibition (PCSK9): 77%
inhibition at 10 µM (PCSK9 mRNA): 88%
fold induction at 10 µM (HepG2 cells [2]): 3.92

CN(C(=O)CN(CC(=O)Nc1ccc(Oc2ccc(F)c(F)c2)cc1)C(=O)c1cc2cccc(F)c2[nH]1)C1Cc2ccccc2C1 [Compound 201-80]
HepG2 Survival assay (10 μM) (HepG2 cells [1]): 100%
HepG2 PCSK9 ELISA (10 μM) % inhibition (PCSK9): 80%
inhibition at 10 µM (PCSK9 mRNA): 88%
fold induction at 10 µM (HepG2 cells [2]): 3.07

COc1ccc(Oc2ccc(NC(=O)CN(CC(=O)Nc3ccccc3)C(=O)c3cc4cccc(F)c4[nH]3)cc2)cc1 [Compound 201-256]
HepG2 Survival assay (10 μM) (HepG2 cells [1]): 109%
HepG2 PCSK9 ELISA (10 μM) % inhibition (PCSK9): 78%
inhibition at 10 µM (PCSK9 mRNA): 75%
fold induction at 10 µM (HepG2 cells [2]): 2.43

CN(C(=O)CN(CC(=O)Nc1ccc(Oc2ccc(F)cc2)cc1)C(=O)c1cc2cccc(F)c2[nH]1)C1CCCC1 [Compound 201-65]
HepG2 Survival assay (10 μM) (HepG2 cells [1]): 100%
HepG2 PCSK9 ELISA (10 μM) % inhibition (PCSK9): 85%
inhibition at 10 µM (PCSK9 mRNA): 87%
fold induction at 10 µM (HepG2 cells [2]): 1.84

CC(C)c1ccc(Oc2ccc(NC(=O)CN(CC(=O)NCc3ccccc3)C(=O)c3cc4cccc(F)c4[nH]3)cc2)cc1 [Compound 201-242]
HepG2 Survival assay (10 μM) (HepG2 cells [1]): 115%
HepG2 PCSK9 ELISA (10 μM) % inhibition (PCSK9): 74%
inhibition at 10 µM (PCSK9 mRNA): 77%
fold induction at 10 µM (HepG2 cells [2]): 2.43

COc1ccc2cc3[n+](cc2c1OC)CCc1cc2c(cc1-3)OCO2 [Berberine, reference compound]
HepG2 PCSK9 ELISA (10 μM) % inhibition (PCSK9): 52%
inhibition at 10 µM (PCSK9 mRNA): 35%
fold induction at 10 µM (HepG2 cells [2]): 2.54

O=C(CN(CC(=O)Nc1ccc(Oc2ccc(C(F)(F)F)cc2)cc1)C(=O)c1cc2cccc(F)c2[nH]1)NCc1ccccc1 [Compound 201-205]
HepG2 Survival assay (10 μM) (HepG2 cells [1]): 90%
HepG2 PCSK9 ELISA (10 μM) % inhibition (PCSK9): 85%
inhibition at 10 µM (PCSK9 mRNA): 92%
fold induction at 10 µM (HepG2 cells [2]): 1.1

CN(Cc1ccccc1F)C(=O)CN(CC(=O)Nc1ccc(Oc2ccc(F)c(F)c2)cc1)C(=O)c1ccc(C(F)(F)F)o1 [Compound 201-115]
HepG2 Survival assay (10 μM) (HepG2 cells [1]): 100%
HepG2 PCSK9 ELISA (10 μM) % inhibition (PCSK9): 90%
inhibition at 10 µM (PCSK9 mRNA): 90%
fold induction at 10 µM (HepG2 cells [2]): 4.07

CN(C(=O)CN(CC(=O)Nc1ccc(Oc2ccc(F)c(F)c2)cc1)C(=O)c1cc2cccc(F)c2[nH]1)C1CCCC1 [Compound 201-75]
HepG2 Survival assay (10 μM) (HepG2 cells [1]): 100%
HepG2 PCSK9 ELISA (10 μM) % inhibition (PCSK9): 80%
inhibition at 10 µM (PCSK9 mRNA): 90%
fold induction at 10 µM (HepG2 cells [2]): 2.92

CN(C(=O)CN(CC(=O)Nc1ccc(Oc2ccc(F)c(F)c2)cc1)C(=O)c1ccco1)C1Cc2ccccc2C1 [Compound 201-134]
HepG2 Survival assay (10 μM) (HepG2 cells [1]): 100%
HepG2 PCSK9 ELISA (10 μM) % inhibition (PCSK9): 90%
inhibition at 10 µM (PCSK9 mRNA): 92%
fold induction at 10 µM (HepG2 cells [2]): 5.3

CC(C)c1ccc(Oc2ccc(NC(=O)CN(CC(=O)NC3CCCC3)C(=O)c3cc4cccc(F)c4[nH]3)cc2)cc1 [Compound 201-227]
HepG2 Survival assay (10 μM) (HepG2 cells [1]): 112%
HepG2 PCSK9 ELISA (10 μM) % inhibition (PCSK9): 71%
inhibition at 10 µM (PCSK9 mRNA): 56%
fold induction at 10 µM (HepG2 cells [2]): 1.37

CN(C(=O)CN(CC(=O)Nc1ccc(Oc2ccccc2)cc1)C(=O)c1cc2cccc(F)c2[nH]1)C1Cc2ccccc2C1 [Compound 201-31]
HepG2 Survival assay (10 μM) (HepG2 cells [1]): 100%
HepG2 PCSK9 ELISA (10 μM) % inhibition (PCSK9): 48%
inhibition at 10 µM (PCSK9 mRNA): 73%
fold induction at 10 µM (HepG2 cells [2]): 2.07

CN(C(=O)CN(CC(=O)Nc1ccc(Oc2ccccc2)cc1)C(=O)c1cc2cccc(F)c2[nH]1)C1CCCC1 [Compound 201-70]
HepG2 Survival assay (10 μM) (HepG2 cells [1]): 100%
HepG2 PCSK9 ELISA (10 μM) % inhibition (PCSK9): 76%
inhibition at 10 µM (PCSK9 mRNA): 85%
fold induction at 10 µM (HepG2 cells [2]): 1.69
